The target of test [1] is T1, primary amine oxidase (SSAO/PrAO/VAP-1) (Homo sapiens, UniProt Q16853).
T1 construct: gene AOC3; native enzyme in homogenates of human subcutaneous adipose tissue
T1 sequence (Q16853 1-763): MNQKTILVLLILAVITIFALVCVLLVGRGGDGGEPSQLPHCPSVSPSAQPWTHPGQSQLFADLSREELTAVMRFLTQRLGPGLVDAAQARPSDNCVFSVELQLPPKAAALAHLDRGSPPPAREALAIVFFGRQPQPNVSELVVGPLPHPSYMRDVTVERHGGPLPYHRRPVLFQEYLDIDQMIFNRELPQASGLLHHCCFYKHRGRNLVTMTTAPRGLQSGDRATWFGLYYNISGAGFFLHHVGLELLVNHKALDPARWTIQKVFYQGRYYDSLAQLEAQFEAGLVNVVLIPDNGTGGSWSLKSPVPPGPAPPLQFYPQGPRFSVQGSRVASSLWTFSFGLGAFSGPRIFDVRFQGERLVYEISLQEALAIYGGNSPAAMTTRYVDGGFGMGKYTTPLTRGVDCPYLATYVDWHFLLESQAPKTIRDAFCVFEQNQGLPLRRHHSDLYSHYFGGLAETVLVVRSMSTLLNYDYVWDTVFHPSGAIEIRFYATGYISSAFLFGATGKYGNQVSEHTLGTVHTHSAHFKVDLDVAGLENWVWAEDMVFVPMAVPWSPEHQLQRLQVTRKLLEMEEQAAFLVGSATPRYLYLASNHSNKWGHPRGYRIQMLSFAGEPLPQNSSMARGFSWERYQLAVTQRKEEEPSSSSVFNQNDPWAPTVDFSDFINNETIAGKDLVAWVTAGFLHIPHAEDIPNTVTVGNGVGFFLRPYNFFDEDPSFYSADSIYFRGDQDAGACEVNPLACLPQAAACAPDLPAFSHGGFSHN
Nature of the test: Amplex Red hydrogen peroxide release in tissue homogenate, Lineweaver-Burk plot. Format: cell-based.

The target of test [2] is T1, primary amine oxidase (SSAO/PrAO/VAP-1). The test can be described thus: Amplex Red hydrogen peroxide assay of benzylamine oxidation in tissue homogenate, Lineweaver-Burk analysis. Format: biochemical.

Turning to `NCc1ccccc1` [benzylamine], in test [1], the “Amplex Red hydrogen peroxide release in tissue homogenate, Lineweaver-Burk plot” value is recorded as “Lineweaver–Burk plot of the inhibition of benzylamine oxidation by increasing doses of caffeine”.

Take `Cn1c(=O)c2c(ncn2C)n(C)c1=O` [caffeine, 1,3,7-trimethylxanthine]: in test [2], the Ki – broadly, the equilibrium dissociation constant of an inhibitor or competing ligand from its target – was determined as 880 µM.

The values are drawn from paper PMC8270301, “Novel Facet of an Old Dietary Molecule? Direct Influence of Caffeine on Glucose and Biogenic Amine Handling by Human Adipocytes” (Molecules, 2021).
